The text below walks through data of patent US11071726B2, “Treating gastric cancer using combination therapies comprising liposomal irinotecan, oxaliplatin, 5-fluorouracil (and leucovorin)” (Ipsen Biopharm Ltd., priority 2016, dated 2021).

The target of one data set is T1, Topoisomerase I (Homo sapiens, UniProt P11387).
T1 sequence (P11387 1-765): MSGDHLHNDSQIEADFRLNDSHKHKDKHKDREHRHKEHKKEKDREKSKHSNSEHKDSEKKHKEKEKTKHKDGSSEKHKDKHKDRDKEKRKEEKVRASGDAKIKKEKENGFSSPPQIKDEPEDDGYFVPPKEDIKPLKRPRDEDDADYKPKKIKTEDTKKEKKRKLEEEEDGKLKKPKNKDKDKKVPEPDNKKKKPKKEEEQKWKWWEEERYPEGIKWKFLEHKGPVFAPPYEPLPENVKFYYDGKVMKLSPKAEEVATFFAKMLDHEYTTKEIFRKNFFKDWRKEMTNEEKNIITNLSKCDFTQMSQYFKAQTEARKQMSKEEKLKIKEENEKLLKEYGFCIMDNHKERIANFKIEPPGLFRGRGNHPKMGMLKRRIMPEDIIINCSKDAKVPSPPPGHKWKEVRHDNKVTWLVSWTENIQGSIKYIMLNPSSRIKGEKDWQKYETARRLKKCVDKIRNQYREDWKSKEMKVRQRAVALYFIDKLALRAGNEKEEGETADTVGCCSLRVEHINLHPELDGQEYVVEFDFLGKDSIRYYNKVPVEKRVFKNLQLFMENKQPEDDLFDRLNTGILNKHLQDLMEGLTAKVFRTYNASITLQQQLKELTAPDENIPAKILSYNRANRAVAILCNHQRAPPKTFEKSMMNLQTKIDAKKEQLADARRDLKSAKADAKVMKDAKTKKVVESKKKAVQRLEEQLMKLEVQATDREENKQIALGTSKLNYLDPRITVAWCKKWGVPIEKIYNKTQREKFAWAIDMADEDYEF
To be noted: metabolite formed by nonspecific carboxylesterases; cited from earlier work.

The conditions of data set [1]: single-agent irinotecan 350 mg/m^2 once every-3-weeks, cited from earlier work.
The conditions of data set [2]: cited from earlier work.
For data set [3] the following is noted: human, in vivo.

Like-named read-outs stand apart in the source and are kept apart here. Some results are limits rather than exact numbers.

For the compound `CCc1c2c(nc3ccc(O)cc13)-c1cc3c(c(=O)n1C2)COC(=O)[C@]3(O)CC` [SN-38], the “activity relative to irinotecan” value on Topoisomerase I is reported as 100-1000 fold.

Regarding `CCc1c2c(nc3ccc(OC(=O)N4CCC(N5CCCCC5)CC4)cc13)-c1cc3c(c(=O)n1C2)COC(=O)[C@]3(O)CC` [irinotecan, (S)-4,11-diethyl-3,4,12,14-tetrahydro-4-hydroxy-3,14-dioxo1H-pyrano[3′,4′:6,7]-indolizino[1,2-b]quinolin-9-yl-[1,4′bipiperidine]-1′-carboxylate], the “incidence of grade 4 neutropenia” value is reported as 12.5% in data set [1] (patients heterozygous (UGT1A1 6/7 genotype)) and at most 50% in data set [1] (patients homozygous for the UGT1A1*28 allele). In addition, the “grade 4 neutropenia” value in data set [1] (patients homozygous for the wild-type allele (UGT1A1 6/6 genotype)) is reported as “no grade 4 neutropenia was observed”.

On to FOLFIRINOX, for which, in data set [2] (Phase 3 study of the FOLFIRINOX combination), the “incidence of most common Grade 3-4 adverse events (neutropenia, fatigue, vomiting, diarrhea, thrombocytopenia, sensory neuropathy, anemia, elevated ALT, thromboembolism, febrile neutropenia)” value is listed as at least 5%. In addition, in data set [2] (first-line treatment), the toxicity entry is given as “significant toxicity”.

With “irinotecan sucrose octasulfate salt liposome injection [MM-398]”, in data set [3], the “consecutive doses of dose level 1 received by any patient” value is at most 2; the “patients administered dose level 1 on day 15 of cycle 1” value was found to be 3; the “patients administered dose level −1 on days 1 and 15 of cycle 1” value was determined as 6.
